Source: ChEMBL document CHEMBL4507317, “Data for DCP probe BAY-899” (2021)

How the values were obtained:
Conditions in all cases: Compound concentration 10.0 uM
[1] = target: Beta-3 adrenergic receptor (Homo sapiens) (UniProt P13945)
[2] = target: P2Y purinoceptor 2 (Homo sapiens) (UniProt P41231); experiment: P2Y2 Eurofins Bayer panel
[3] = target: T1, Muscarinic acetylcholine receptor M1 (Homo sapiens) (UniProt P11229); experiment: M1 Eurofins Bayer panel
T1 sequence (whole entry): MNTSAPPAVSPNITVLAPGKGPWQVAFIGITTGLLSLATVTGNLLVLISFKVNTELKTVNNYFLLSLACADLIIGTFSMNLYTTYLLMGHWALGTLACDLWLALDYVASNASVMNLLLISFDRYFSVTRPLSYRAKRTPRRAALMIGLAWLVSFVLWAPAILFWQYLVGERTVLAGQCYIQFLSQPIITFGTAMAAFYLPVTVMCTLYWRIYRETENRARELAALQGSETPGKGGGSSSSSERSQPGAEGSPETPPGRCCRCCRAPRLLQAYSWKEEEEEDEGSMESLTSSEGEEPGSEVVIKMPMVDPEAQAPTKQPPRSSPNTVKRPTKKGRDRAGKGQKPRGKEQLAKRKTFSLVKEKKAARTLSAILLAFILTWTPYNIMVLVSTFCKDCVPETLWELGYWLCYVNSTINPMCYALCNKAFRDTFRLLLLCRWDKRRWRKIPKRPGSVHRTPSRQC

[4] = target: D(2) dopamine receptor (Homo sapiens) (UniProt P14416); experiment: D2L Eurofins Bayer panel
Chain of D(2) dopamine receptor (Homo sapiens) (P14416 whole entry): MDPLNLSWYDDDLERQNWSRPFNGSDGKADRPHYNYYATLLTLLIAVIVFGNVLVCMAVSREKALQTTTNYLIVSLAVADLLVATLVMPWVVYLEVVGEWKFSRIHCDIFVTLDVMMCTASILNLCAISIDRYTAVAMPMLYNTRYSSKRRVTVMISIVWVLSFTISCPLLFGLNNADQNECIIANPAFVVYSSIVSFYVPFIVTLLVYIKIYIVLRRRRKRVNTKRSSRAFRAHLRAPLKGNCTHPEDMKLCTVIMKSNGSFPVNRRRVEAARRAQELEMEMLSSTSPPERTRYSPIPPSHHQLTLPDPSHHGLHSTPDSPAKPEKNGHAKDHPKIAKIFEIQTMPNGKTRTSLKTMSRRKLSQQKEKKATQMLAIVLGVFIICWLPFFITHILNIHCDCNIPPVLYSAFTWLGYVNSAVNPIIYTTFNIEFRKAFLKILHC

[5] = target: D(1A) dopamine receptor (Homo sapiens) (UniProt P21728); experiment: D1 Eurofins Bayer panel
Chain of D(1A) dopamine receptor (Homo sapiens) (P21728 whole entry): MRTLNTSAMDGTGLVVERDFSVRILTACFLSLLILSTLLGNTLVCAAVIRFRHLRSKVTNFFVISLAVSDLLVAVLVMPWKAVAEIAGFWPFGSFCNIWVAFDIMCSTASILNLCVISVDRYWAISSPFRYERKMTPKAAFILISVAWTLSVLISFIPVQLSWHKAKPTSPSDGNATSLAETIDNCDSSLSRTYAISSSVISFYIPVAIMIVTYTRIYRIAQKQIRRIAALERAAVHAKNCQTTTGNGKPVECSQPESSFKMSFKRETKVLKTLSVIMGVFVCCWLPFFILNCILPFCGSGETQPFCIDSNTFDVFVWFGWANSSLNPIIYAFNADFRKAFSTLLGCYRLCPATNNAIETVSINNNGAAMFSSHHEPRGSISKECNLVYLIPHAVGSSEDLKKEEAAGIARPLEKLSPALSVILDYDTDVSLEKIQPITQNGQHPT

[6] = target: Mu-type opioid receptor (Homo sapiens) (UniProt P35372); experiment: mu (MOP) Eurofins Bayer panel
Chain of Mu-type opioid receptor (Homo sapiens) (P35372 whole entry): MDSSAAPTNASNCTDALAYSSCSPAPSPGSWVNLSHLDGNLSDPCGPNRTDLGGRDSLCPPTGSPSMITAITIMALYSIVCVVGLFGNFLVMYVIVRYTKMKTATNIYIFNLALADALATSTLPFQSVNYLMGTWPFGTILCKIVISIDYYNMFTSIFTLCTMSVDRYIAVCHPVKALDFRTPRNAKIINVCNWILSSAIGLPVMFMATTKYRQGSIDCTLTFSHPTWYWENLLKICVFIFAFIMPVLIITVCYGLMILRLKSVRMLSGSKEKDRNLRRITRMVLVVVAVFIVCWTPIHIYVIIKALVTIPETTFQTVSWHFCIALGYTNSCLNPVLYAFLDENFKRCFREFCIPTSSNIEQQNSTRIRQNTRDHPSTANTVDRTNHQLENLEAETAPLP

[7] = target: T2, Muscarinic acetylcholine receptor M4 (Homo sapiens) (UniProt P08173); experiment: M4 Eurofins Bayer panel
T2 sequence (whole entry): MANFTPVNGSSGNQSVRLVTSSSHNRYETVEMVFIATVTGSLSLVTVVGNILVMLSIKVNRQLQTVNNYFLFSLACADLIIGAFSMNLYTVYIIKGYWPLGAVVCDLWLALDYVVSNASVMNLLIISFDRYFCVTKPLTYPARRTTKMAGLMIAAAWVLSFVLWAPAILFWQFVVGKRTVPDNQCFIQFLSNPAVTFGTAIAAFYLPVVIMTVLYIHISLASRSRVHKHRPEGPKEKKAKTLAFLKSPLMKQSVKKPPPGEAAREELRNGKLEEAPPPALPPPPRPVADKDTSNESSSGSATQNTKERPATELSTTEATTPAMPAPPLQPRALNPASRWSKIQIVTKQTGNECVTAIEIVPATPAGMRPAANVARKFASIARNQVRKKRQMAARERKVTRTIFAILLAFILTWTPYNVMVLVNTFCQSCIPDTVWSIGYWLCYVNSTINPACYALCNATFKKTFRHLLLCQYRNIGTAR

[8] = target: Cannabinoid receptor 1 (Homo sapiens) (UniProt P21554); experiment: CB1 Eurofins Bayer panel
Chain of Cannabinoid receptor 1 (Homo sapiens) (P21554 whole entry): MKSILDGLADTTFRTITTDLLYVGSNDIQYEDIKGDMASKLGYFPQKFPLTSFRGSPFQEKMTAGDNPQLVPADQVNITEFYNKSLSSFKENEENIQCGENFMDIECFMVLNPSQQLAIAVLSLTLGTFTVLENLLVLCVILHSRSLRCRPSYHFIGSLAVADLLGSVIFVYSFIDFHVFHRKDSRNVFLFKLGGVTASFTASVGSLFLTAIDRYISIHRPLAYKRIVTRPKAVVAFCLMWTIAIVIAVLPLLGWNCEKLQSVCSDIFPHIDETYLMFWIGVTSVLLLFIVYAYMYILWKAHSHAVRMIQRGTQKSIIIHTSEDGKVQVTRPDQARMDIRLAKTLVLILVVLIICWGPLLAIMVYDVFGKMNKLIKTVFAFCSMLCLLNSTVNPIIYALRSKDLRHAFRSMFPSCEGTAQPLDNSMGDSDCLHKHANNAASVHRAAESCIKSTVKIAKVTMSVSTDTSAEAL

[9] = target: 5-hydroxytryptamine receptor 6 (Homo sapiens) (UniProt P50406); experiment: 5-HT6 Eurofins Bayer panel
Chain of 5-hydroxytryptamine receptor 6 (Homo sapiens) (P50406 whole entry): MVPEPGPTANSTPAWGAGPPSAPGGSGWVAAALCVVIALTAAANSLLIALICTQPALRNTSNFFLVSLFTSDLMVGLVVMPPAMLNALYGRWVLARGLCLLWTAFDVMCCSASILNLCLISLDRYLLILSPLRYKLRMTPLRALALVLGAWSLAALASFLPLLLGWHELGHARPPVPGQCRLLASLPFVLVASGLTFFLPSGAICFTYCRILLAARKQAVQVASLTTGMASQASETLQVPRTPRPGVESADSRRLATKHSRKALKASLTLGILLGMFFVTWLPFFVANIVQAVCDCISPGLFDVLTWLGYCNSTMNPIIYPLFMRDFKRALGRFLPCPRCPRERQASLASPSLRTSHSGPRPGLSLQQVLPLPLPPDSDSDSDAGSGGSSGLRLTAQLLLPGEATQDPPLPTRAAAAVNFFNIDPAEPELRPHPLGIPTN

[10] = target: Histamine H1 receptor (Homo sapiens) (UniProt P35367); experiment: H1 Eurofins Bayer panel
Chain of Histamine H1 receptor (Homo sapiens) (P35367 whole entry): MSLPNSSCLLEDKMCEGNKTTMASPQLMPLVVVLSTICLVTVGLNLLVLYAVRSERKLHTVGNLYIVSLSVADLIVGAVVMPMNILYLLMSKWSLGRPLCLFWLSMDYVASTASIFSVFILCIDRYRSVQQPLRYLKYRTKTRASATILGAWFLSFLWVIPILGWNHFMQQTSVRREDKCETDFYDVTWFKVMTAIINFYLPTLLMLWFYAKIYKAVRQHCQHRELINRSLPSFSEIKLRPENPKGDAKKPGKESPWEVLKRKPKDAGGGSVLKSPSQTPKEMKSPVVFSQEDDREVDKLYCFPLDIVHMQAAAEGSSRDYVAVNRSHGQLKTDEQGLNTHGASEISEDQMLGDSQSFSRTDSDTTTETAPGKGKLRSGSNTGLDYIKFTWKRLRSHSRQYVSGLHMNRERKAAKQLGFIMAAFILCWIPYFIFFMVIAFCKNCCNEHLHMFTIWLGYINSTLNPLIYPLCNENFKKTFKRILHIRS

Chain of P2Y purinoceptor 2 (Homo sapiens) (P41231 whole entry): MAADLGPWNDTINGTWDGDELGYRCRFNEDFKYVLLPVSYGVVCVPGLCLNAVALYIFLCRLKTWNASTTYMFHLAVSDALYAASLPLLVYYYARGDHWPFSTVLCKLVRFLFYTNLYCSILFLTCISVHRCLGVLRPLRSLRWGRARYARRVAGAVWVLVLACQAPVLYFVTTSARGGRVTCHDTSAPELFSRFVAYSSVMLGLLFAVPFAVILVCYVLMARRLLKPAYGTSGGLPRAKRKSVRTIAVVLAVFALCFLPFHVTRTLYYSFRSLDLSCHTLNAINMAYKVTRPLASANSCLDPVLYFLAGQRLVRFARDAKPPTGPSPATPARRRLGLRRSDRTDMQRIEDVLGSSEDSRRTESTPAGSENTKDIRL
Chain of Beta-3 adrenergic receptor (Homo sapiens) (P13945 whole entry, looked up): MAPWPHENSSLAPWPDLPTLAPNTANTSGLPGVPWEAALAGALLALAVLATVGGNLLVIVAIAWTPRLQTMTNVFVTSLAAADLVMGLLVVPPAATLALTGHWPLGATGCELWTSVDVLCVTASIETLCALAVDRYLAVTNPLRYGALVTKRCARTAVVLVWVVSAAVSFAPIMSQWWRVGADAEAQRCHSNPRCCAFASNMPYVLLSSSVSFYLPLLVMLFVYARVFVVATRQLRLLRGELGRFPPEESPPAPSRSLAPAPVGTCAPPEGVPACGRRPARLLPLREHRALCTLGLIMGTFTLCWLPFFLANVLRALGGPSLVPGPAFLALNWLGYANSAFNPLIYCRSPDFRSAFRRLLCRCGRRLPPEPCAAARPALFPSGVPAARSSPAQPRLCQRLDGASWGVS

Structure (SMILES) | inhibition [1] [%] | Activation (% of control) [2] [%] | Inhibition (% of control) [2] [%] | Activation (% of control) [3] [%] | Inhibition (% of control) [3] [%] | Activation (% of control) [4] [%] | Inhibition (% of control) [4] [%] | Activation (% of control) [5] [%] | Inhibition (% of control) [5] [%] | Activation (% of control) [6] [%] | Inhibition (% of control) [6] [%] | Activation (% of control) [7] [%] | Inhibition (% of control) [7] [%] | Activation (% of control) [8] [%] | Inhibition (% of control) [8] [%] | Activation (% of control) [9] [%] | Inhibition (% of control) [9] [%] | Activation (% of control) [10] [%] | Inhibition (% of control) [10] [%]
O=C(Nc1ccc(Oc2ccc(F)cc2)cc1)N1CCc2ncccc2[C@H]1c1ccc(F)cc1 [BAY-897] | 29.4 |  |  |  |  |  |  |  |  |  |  |  |  |  |  |  |  |  | 
O=C(Nc1cnc(Oc2ccc(F)cc2)nc1)N1CCc2ncccc2[C@@H]1c1ccc(F)cc1 [BAY-899] |  | -1 | 8 | 1 | 32 | -1 | 67 | -1 | 15 | 56 | 8 | -6 | 2 | 52 | 4 | -1 | 12 | -4 | 4
